Reference: patent US12202829B2, “Heterocyclic compound” (FIMECS, Inc., priority 2018, dated 2025)
Where a name gives a salt, the structure may show the parent alone. Blank lines part the entries; values can stand above or below the compound they belong to.

Target: T1, human XIAP_BIR3 domain purified protein (Homo sapiens, UniProt P98170)
T1 construct: purchased R & D
Assay: XIAP binding inhibitory activity, HTRF method with b-Smac ligand
Conditions: for inhibition at 3 µM: test compound 3 μM, first symbol of the cell, read-out: XIAP binding inhibition rate when the concentration of the test compound is 3 μM; for IC50: second symbol of the cell, read-out: XIAP binding 50% inhibitory concentration (IC50 value)
Method: Human XIAP binding inhibitory activity were measured by the Homogeneous Time Resolved Fluorescence (HTRF) method with using commercially available human XIAP_BIR3 domain purified protein (R & D) and as a ligand a Smac N-terminal peptide (AVPIAQK (SEQ ID NO: 1)) (hereinafter referred to as “b-Smac”; Peptide Research Laboratories, Inc.) biotinylated at the C-terminus according to a conventional method.
The HTRF method will be described in detail below. A test compound diluted with a reaction buffer was added to a 384-well white shallow bottom plate (Greiner 784076) at 1 μL/well and flash centrifuged for 30 seconds. Subsequently, human XIAP_BIR3 domain purified protein was diluted with the reaction buffer (25 mM HEPES Buffer containing 100 mM NaCl, 0.1% BSA, and 0.1% triton X-100, pH 7.5) to obtain a 90 nM sample diluent, and the resultant sample diluent was added to the above-mentioned white superficial plate at 4.5 μL/well and flash centrifuged for 30 seconds. Subsequently, b-Smac diluted to 90 nM with the reaction buffer was added to the above-mentioned white superficial plat at 4.5 μL/well and flash centrifuged for 30 seconds. A mixed solution of Anti-6 HIS-Cryptate (Eu3+Cryptate-conjugated mouse monoclonal antibody anti-6 Histidine; cisbio) and Streptavidin-XL^ent! (Highgrade XL665-conjugated streptavidin; cisbio) both diluted 100-fold with HTRF detection buffer (cisbio) at a volume ratio of 1:1 was added to the above white superficial plate at 10 μL/well. After flash centrifuging the white shallow bottom plate for 30 seconds, the white shallow bottom plate was left at room temperature for 4 hours or more in the dark. The white superficial plate after being left was subjected to fluorescence intensity measurement (excitation wavelength: 320 nm, fluorescence wavelength: 665 nm and 615 nm) by EnVision (Perkin Elmer).
The binding inhibition rate (%) was calculated based on the HTRF ratio in the presence of the test compound to the HTRF ratio in the absence of the test compound (fluorescence intensity at 665 nm/fluorescence intensity at 615 nm).

T1 sequence (P98170 252-356 limits assumed): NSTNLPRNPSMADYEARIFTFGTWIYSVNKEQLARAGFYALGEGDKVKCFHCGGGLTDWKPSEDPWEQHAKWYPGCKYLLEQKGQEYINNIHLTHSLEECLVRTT

SMILES: COc1ccc2cc(C(=O)N3CCN(C(=O)CN4C[C@@H](C)NC[C@@H]4CN(C)CCOCCO)CC3)n(C)c2c1 [Example 40, 2-((2R,5R)-2-(((2-(2-Hydroxyethoxy)ethyl) (methyl)amino)methyl)-5-methylpiperazin-1-yl)-1-(4-(6-methoxy-1-methyl-1H-indole-2-carbonyl)piperazin-1-yl)ethan-1-one Hydrochloride]
inhibition at 3 µM: > 75%

SMILES: CN[C@@H](C)C(=O)N[C@H](C(=O)N1CCN(C(=O)c2c(C(=O)NCCOCCOCC(=O)O)c3ccc(OC)cc3n2C)CC1)C1CCCCC1 [Example 37, 2-(2-(2-(2-(4-((S)-2-Cyclohexyl-2-((S)-2-(methylamino)propanamido)acetyl)piperazine-1-carbonyl)-6-methoxy-1-methyl-1H-indole-3-carboxamido)ethoxy)ethoxy)acetic Acid Hydrochloride]
inhibition at 3 µM: 50 to 75%

SMILES: CN[C@@H](C)C(=O)N[C@H](C(=O)N1CCN(C(=O)c2cc3ccc(OC)cc3n2C)CC1)C1CCCCC1 [Example 1, (S)—N—((S)-1-Cyclohexyl-2-(4-(6-methoxy-1-methyl-1H-indole-2-carbonyl)piperazin-1-yl)-2-oxoethyl)-2-(methylamino)propanamide Hydrochloride]
inhibition at 3 µM: > 75%

SMILES: CN[C@@H](C)C(=O)N[C@H](C(=O)N1CCN(C(=O)c2c(C(=O)NCCOCCOCCN=[N+]=[N-])c3ccc(OC)cc3n2C)CC1)C1CCCCC1 [Example 61, N-(2-(2-(2-Azidoethoxy)ethoxy)ethyl)-2-(4-((S)-2-cyclohexyl-2-((S)-2-(methylamino)propanamido)acetyl)piperazine-1-carbonyl)-6-methoxy-1-methyl-1H-indole-3-carboxamide]
inhibition at 3 µM: > 75%

SMILES: CN[C@@H](C)C(=O)N[C@H](C(=O)N1CCN(C(=O)c2ccn3nccc3c2F)CC1)C1CCCCC1 [Example 5, (S)-N-((S)-1-cyclohexyl-2-(4-(4-fluoropyrazolo[1,5-a]pyridine-5-carbonyl)piperazin-1-yl)-2-oxoethyl)-2-(methylamino)propanamide]
inhibition at 3 µM: 25 to 50%

SMILES: Cc1nc(Nc2ncc(C(=O)Nc3c(C)cccc3Cl)s2)cc(N2CCN(CCOCCOCCOC[C@H]3CN[C@H](C)CN3CC(=O)N3CCN(C(=O)c4cc5cc(F)c(F)cc5n4C)C[C@H]3C)CC2)n1 [Example 83, N-(2-chloro-6-methylphenyl)-2-((6-(4-(2-(2-(2-(((2R,5R)-1-(2-((R)-4-(5,6-difluoro-1-methyl-1H-indole-2-carbonyl)-2-methylpiperazin-1-yl)-2-oxoethyl)-5-methylpiperazin-2-yl)methoxy)ethoxy)ethoxy)ethyl)piperazin-1-yl)-2-methylpyrimidin-4-yl)amino)thiazole-5-carboxamide]
IC50: 3 to 30 µM

SMILES: CN[C@@H](C)C(=O)N[C@H](C(=O)N1CCN(C(=O)c2ccc3cc(C)cn3c2)CC1)C1CCCCC1 [Example 20, (S)-N-((S)-1-cyclohexyl-2-(4-(2-methylindolizine-6-carbonyl)piperazin-1-yl)-2-oxoethyl)-2-(methylamino)propanamide]
inhibition at 3 µM: > 75%

SMILES: CN[C@@H](C)C(=O)N[C@H](C(=O)N1CCN(C(=O)c2c(C(=O)NCCOCCOCCOCCNC(=O)C[C@@H]3N=C(c4ccc(Cl)cc4)c4c(sc(C)c4C)-n4c(C)nnc43)c3ccc(OC)cc3n2C)CC1)C1CCCCC1 [Example 73, N-(1-((S)-4-(4-chlorophenyl)-2,3,9-trimethyl-6H-thieno[3,2-f][1,2,4]triazolo[4,3-a][1,4]diazepin-6-yl)-2-oxo-6,9,12-trioxa-3-azatetradecan-14-yl)-2-(4-((S)-2-cyclohexyl-2-((S)-2-(methylamino)propanamido)acetyl)piperazine-1-carbonyl)-6-methoxy-1-methyl-1H-indole-3-carboxamide]
IC50: < 0.3 µM

SMILES: CN[C@@H](C)C(=O)N[C@H](C(=O)N1CCN(C(=O)c2cc3cccc(C)c3n2C)CC1)C1CCCCC1 [Example 16, (S)-N-((S)-1-cyclohexyl-2-(4-(1,7-dimethyl-1H-indole-2-carbonyl)piperazin-1-yl)-2-oxoethyl)-2-(methylamino)propanamide]
inhibition at 3 µM: 50 to 75%

SMILES: CN[C@@H](C)C(=O)N[C@H](C(=O)N1CCN(C(=O)c2cc(C3CC3)nn2C)CC1)C1CCCCC1 [Example 9, (S)-N-((S)-1-cyclohexyl-2-(4-(3-cyclopropyl-1-methyl-1H-pyrazole-5-carbonyl)piperazin-1-yl)-2-oxoethyl)-2-(methylamino)propanamide]
inhibition at 3 µM: > 25%

SMILES: CN[C@@H](C)C(=O)N[C@H](C(=O)N1CCN(C(=O)c2c(C(=O)NCCOC)c3ccc(OC)cc3n2C)CC1)C1CCCCC1 [Example 25, 2-(4-((S)-2-Cyclohexyl-2-((S)-2-(methylamino)propanamido)acetyl)piperazine-1-carbonyl)-6-methoxy-N-(2-methoxyethyl)-1-methyl-1H-indole-3-carboxamide Hydrochloride]
inhibition at 3 µM: > 75%

SMILES: CN[C@@H](C)C(=O)N[C@H](C(=O)N1CCN(C(=O)c2c(C(=O)NCCOCCOCCNC(=O)OCC3c4ccccc4-c4ccccc43)c3ccc(OC)cc3n2C)CC1)C1CCCCC1 [Example 38, (9H-Fluoren-9-yl)methyl (2-(2-(2-(2-(4-((S)-2-cyclohexyl-2-((S)-2-(methylamino)propanamido)acetyl)piperazine-1-carbonyl)-6-methoxy-1-methyl-1H-indole-3-carboxamido)ethoxy)ethoxy)ethyl)carbamate Hydrochloride]
inhibition at 3 µM: > 75%

Second part, the compound after the results:

IC50: 3 to 30 µM
SMILES: CN[C@@H](C)C(=O)N[C@H](C(=O)N1CCN(C(=O)c2cc3ccc(F)cc3n2CCOC)CC1)C1CCCCC1 [Example 53, (S)—N—((S)-1-cyclohexyl-2-(4-(6-fluoro-1-(2-methoxyethyl)-1H-indole-2-carbonyl)piperazin-1-yl)-2-oxoethyl)-2-(methylamino)propanamide]

IC50: 3 to 30 µM
SMILES: CN[C@@H](C)C(=O)N[C@H](C(=O)N1C[C@H]2CC[C@@H]1CN2C(=O)c1cc2cc(F)c(F)cc2n1C)C1CCCCC1 [Example 59, (2S)-N-((1S)-1-cyclohexyl-2-(5-((5,6-difluoro-1-methyl-1H-indol-2-yl)carbonyl)-2,5-diazabicyclo[2.2.2]octan-2-yl)-2-oxoethyl)-2-(methylamino)propanamide]

inhibition at 3 µM: > 75%
SMILES: CN[C@@H](C)C(=O)N[C@H](C(=O)N1CCN(C(=O)c2cc3ccc(OC)cc3n2C)CC1)C1CCC(F)(F)CC1 [Example 42, (S)—N—((S)-1-(4,4-Difluorocyclohexyl)-2-(4-(6-methoxy-1-methyl-1H-indole-2-carbonyl)piperazin-1-yl)-2-oxoethyl)-2-(methylamino)propanamide Hydrochloride]

IC50: 3 to 30 µM
SMILES: C[C@@H]1CN(CC(=O)N2CCN(C(=O)c3cc4cc(F)c(F)cc4n3C)C[C@H]2C)[C@@H](COCCOCCOCCOCCO)CN1 [Example 65, 1-((R)-4-(5,6-Difluoro-1-methyl-1H-indole-2-carbonyl)-2-methylpiperazin-1-yl)-2-((2R,5R)-2-(13-hydroxy-2,5,8,11-tetraoxatridecyl)-5-methylpiperazin-1-yl)ethan-1-one]

inhibition at 3 µM: 50 to 75%
SMILES: CN[C@@H](C)C(=O)N[C@H](C(=O)N1CCN(C(=O)c2cc3ccc(F)cc3n2C)CC1)C1CCCCC1 [Example 14, (S)-N-((S)-1-cyclohexyl-2-(4-(6-fluoro-1-methyl-1H-indole-2-carbonyl)piperazin-1-yl)-2-oxoethyl)-2-(methylamino)propanamide]

IC50: 3 to 30 µM
SMILES: CN[C@@H](C)C(=O)N[C@H](C(=O)N1CCN(C(=O)c2cc3cc(F)c(F)cc3n2CCOCCOCc2ccccc2)CC1)C1CCCCC1 [Example 44, (S)—N—((S)-2-(4-(1-(2-(2-(Benzyloxy)ethoxy)ethyl)-5,6-difluoro-1H-indole-2-carbonyl)piperazin-1-yl)-1-cyclohexyl-2-oxoethyl)-2-(methylamino)propanamide]

IC50: 3 to 30 µM
SMILES: CN[C@@H](C)C(=O)N[C@H](C(=O)N1CCN(C(=O)c2cc3cc(F)c(F)cc3n2CCOCCOCCOCCO)CC1)C1CCCCC1 [Example 48, (S)—N—((S)-1-Cyclohexyl-2-(4-(5,6-difluoro-1-(2-(2-(2-(2-hydroxyethoxy)ethoxy)ethoxy)ethyl)-1H-indole-2-carbonyl)piperazin-1-yl)-2-oxoethyl)-2-(methylamino)propanamide]

inhibition at 3 µM: > 25%
SMILES: CN[C@@H](C)C(=O)N[C@H](C(=O)N1CCN(C(=O)c2ccc3nc(C)nn3c2)CC1)C1CCCCC1 [Example 19, (S)-N-((S)-1-cyclohexyl-2-(4-(2-methyl-[1,2,4]triazolo[1,5-a]pyridine-6-carbonyl)piperazin-1-yl)-2-oxoethyl)-2-(methylamino)propanamide]

IC50: 3 to 30 µM
SMILES: CN[C@@H](C)C(=O)N[C@H](C(=O)N1CCN(C(=O)c2c(OCCOCCO)c3cc(F)c(F)cc3n2C)CC1)C1CCCCC1 [Example 50, (S)—N—((S)-1-Cyclohexyl-2-(4-(5,6-difluoro-3-(2-(2-hydroxyethoxy)ethoxy)-1-methyl-1H-indole-2-carbonyl)piperazin-1-yl)-2-oxoethyl)-2-(methylamino)propanamide]
